Changes are numbered by the printed parent chain.
Assays:
[1] = tested on: KCNJ3 N83H mutant zebrafish; experiment: transgenic zebrafish model, heart rate and pulsation rhythm analysis (KCNJ3 N83H); format: in vivo, zebrafish (Danio rerio); conditions: for effect on heart rate and bradyarrhythmia: 100 nM in 0.03% sea salt aqueous solution, after 1 hour, 2 day old fry; for effect on sinus arrest / atrioventricular block caused by the N83H mutation: 100 nM, 1 hour after application
Procedure: (§1) As a comparative example, zebrafish for KCNJ3 WT expression was also prepared in the same manner.
Transgenic zebrafish was prepared by a transposon transfer system using transposon Tol2. Since the cardiac KACh channel was expressed in the sinoatrial node, atrioventricular node, and atrial muscle, a gene construct in which three genes of mCherry were linked with a 2A peptide was prepared so that human KCNJ3 WT or N83H and human KCNJ5, and additionally gene introduction thereof were able to be determined under a fluorescence microscope under the control of the atrial myosin heavy chain (amhc) promoter, which expressed a target gene in zebrafish in an atrial-specific manner (FIG. 3). Next, a small amount of mRNA of the transposase encoded by Tol2 gene and this construct were simultaneously injected into the fertilized egg. When the adult fish prepared in this manner were crossed with wild type zebrafish, fish whose germline transmission was confirmed by generating fry positive for mCherry in the atrium under a fluorescence microscope were used as an F0 founder. When this F0 founder was crossed with wild type zebrafish hspGFF3A, which expressed GFP in both the ventricle and the atrium (Proceedings of the National Academy of Sciences of the United States of America. 2008; 105:1255-1260.), the heart rate and the heart pulsation rhythm were analyzed using 2 day old F1 transgenic zebrafish fry which expressed GFP in the ventricle and GFP and mCherry in the atrium (FIG. 4). Specifically, zebrafish fry was fixed on a glass bottom dish with a diameter of 35 mm with a 0.5% low-melting-point agarose gel, and the fry heart in a 0.03% sea salt aqueous solution was observed under a fluorescence microscope. Based on the video of the heart beat acquired by the camera attached to the fluorescence microscope, detailed analysis of the heart rate and pulsation rhythm was performed using original M mode analysis software (The Journal of clinical investigation. 2007, 117:2812-2824.). The heart rate was measured by the pulsation of the sinus venosus part including the sinus node. Since the expression level of mCherry in the atrium was not different between KCNJ3 WT zebrafish and KCNJ3 N83H mutant zebrafish, the expression level of the KACh channel gene was considered to be the same in both cases. In the KCNJ3 N83H mutant zebrafish, significant atrial enlargement and a bradyarrhythmia phenotype similar to human cases (sinus arrest, sinus bradycardia, sinoatrial block, atrioventricular block) were observed (FIG. 5). Next, the 0.03% sea salt aqueous solution was replaced with a 0.03% sea salt aqueous solution containing the 100 nM compound (II), and the heart beat after 1 hour was analyzed in the same manner.

KCNJ3 WT KACh channel [2] = target: T1, KCNJ3 WT KACh channel (Homo sapiens, UniProt P48544+P48549); experiment: two-electrode voltage clamp, KACh channel expressed in Xenopus laevis oocytes (wild type); format: cell-based
T1 construct: expressed in transfected cells; host or cells: Xenopus laevis oocytes (cRNA injection)
T1 sequence (P48549 1-501): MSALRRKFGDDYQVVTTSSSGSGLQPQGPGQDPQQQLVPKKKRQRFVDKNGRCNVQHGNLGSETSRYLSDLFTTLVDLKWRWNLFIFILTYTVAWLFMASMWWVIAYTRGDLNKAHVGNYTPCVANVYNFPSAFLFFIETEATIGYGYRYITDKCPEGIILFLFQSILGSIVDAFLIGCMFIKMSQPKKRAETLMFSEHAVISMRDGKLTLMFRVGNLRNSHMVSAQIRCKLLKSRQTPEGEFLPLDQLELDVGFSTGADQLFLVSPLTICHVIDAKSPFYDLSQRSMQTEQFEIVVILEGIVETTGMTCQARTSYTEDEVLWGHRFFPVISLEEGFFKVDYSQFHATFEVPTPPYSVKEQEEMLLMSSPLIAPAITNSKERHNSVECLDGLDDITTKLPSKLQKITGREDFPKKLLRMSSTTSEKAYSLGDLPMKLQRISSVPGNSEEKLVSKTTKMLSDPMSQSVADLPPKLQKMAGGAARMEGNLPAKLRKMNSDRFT
T1 sequence (P48544 1-419): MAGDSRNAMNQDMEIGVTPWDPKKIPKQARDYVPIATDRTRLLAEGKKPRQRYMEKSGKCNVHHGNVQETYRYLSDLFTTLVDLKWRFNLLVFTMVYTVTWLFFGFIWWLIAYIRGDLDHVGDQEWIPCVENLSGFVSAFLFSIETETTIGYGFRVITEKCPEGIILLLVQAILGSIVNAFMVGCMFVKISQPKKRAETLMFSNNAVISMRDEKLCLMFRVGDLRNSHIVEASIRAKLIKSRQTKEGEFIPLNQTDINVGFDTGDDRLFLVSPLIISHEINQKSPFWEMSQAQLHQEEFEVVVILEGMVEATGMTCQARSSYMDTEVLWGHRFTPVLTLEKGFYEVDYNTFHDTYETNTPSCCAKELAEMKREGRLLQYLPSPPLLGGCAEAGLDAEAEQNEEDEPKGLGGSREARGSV
Source text: (§2) By co-expressing with […] subunits of G protein, a whole cell current was able to be directly measured via the activated KACh channel.
The coding sequence of human KCNJ3 WT was obtained by amplifying a human KCNJ3 cDNA clone (commercially available from Invitrogen) by PCR, and subcloning it into a pCS2+ vector (commercially available from Addgene). The c.247A>C mutation providingKCNJ3 N83H was introduced by site-directed mutagenesis through PCR. Similarly, the human KCNJ5 coding sequence was obtained by amplifying a human KCNJ5 cDNA clone (commercially available from Invitrogen) by PCR and subcloning it into a pCS2+ vector. […]
The whole cell current via the expressed KACh channel was measured by a two-electrode voltage clamp method using a GeneClamp 500 amplifier (commercially available from Molecular Devices). […] The perfusate containing the compound (II) with a low concentration was added when the amount of current was almost steady, and the amount of current was then recorded while replacing it with a perfusate with a high concentration in the same manner. When the recording was ended, Ba^2+ (3 mM) was added, and the intrinsic leak current was measured. The measured data was analyzed using Clampfit 10.2 (commercially available from Molecular Devices). The IC50 value was calculated using GraphPad Prism version 5.00 (commercially available from GraphPad Software).

[3] = target: T2, KCNJ5 WT/W101C KACh channel (Homo sapiens, UniProt P48544+P48549, W101C); experiment: two-electrode voltage clamp, W101C heterozygous mutant KACh channel in Xenopus laevis oocytes; format: cell-based; conditions: 0.01, 0.1 and 1 μM
T2 construct: expressed in transfected cells; host or cells: Xenopus laevis oocytes (cRNA injection)
T2 sequence (P48544 1-419 W101C): T1 sequence (P48544 1-419) with W101C
T2 sequence (P48544 1-419): T1 sequence (P48544 1-419)
T2 sequence (P48549 1-501): T1 sequence (P48549 1-501)
Procedure: In Xenopus laevis oocytes, in order to imitate autosomal dominant inheritance heterozygous, equimolar amounts of cRNAs of wild type KCNJ5 (KCNJ5 WT) and KCNJ5 W101C were injected together with cRNA of wild type KCNJ3 (KCNJ3 WT), the W101C heterozygous mutant KACh channel was expressed, electrodes were inserted, and the channel activity was confirmed by a two-electrode voltage clamp method.
The above human KCNJ5 cDNA clone (commercially available from Invitrogen) was amplified by PCR and subcloned it into a pCS2+ vector (commercially available from Addgene) to prepare a template, and the c.303G>C mutation providing KCNJ5 W101C was introduced by site-directed mutagenesis through PCR. […]
The whole cell current via the expressed KACh channel was measured by a two-electrode voltage clamp method using a GeneClamp 500 amplifier (commercially available from Molecular Devices). […] The perfusate containing the compound (I) with a low concentration was added when the current amplitude was almost steady, and the current amplitude was then recorded while replacing it with a perfusate with a high concentration in the same manner. When the recording was ended, Ba^2+ (3 mM) was added, and the intrinsic leak current was measured.

KCNJ3 N83H KACh channel = target: T3, KCNJ3 N83H KACh channel (Homo sapiens, UniProt P48544+P48549, N83H); experiment: two-electrode voltage clamp, KACh channel expressed in Xenopus laevis oocytes (N83H mutant); format: cell-based; conditions: for inhibition of the N83H mutant compared with the WT KACh channel: N83H vs WT; for inhibitory effect on the KCNJ3 N83H KACh channel: two-electrode voltage clamp
T3 construct: expressed in transfected cells; host or cells: Xenopus laevis oocytes (cRNA injection)
T3 sequence (P48549 1-501 N83H): T1 sequence (P48549 1-501) with N83H
T3 sequence (P48544 1-419): T1 sequence (P48544 1-419)
Source text: as §2
The coding sequence of human KCNJ3 WT was obtained by amplifying a human KCNJ3 cDNA clone (commercially available from Invitrogen) by PCR, and subcloning it into a pCS2+ vector (commercially available from Addgene). The c.247A>C mutation providingKCNJ3 N83H was introduced by site-directed mutagenesis through PCR. Similarly, the human KCNJ5 coding sequence was obtained by amplifying a human KCNJ5 cDNA clone (commercially available from Invitrogen) by PCR and subcloning it into a pCS2+ vector. The cRNAs of KCNJ3 WT, KCNJ3 N83H and KCNJ5 were synthesized from linearized cDNA using an mMESSAGE mMACHINE kit (commercially available from Life Technologies) vitro transcription. cRNA of KCNJ3 N83H or KCNJ3 WT and cRNA of wild type KCNJ5 were injected into Xenopus laevis oocytes together with cRNA of β and γ subunits of G protein, and incubated in an ND96 solution at 18° C. for 48 to 96 hours.
For the extracellular fluid, the pH of a test bath solution containing 40 mM potassium chloride, 50 mM sodium chloride, 3 mM magnesium chloride M, 0.15 mM niflumic acid, and 5 mMHEPES was adjusted to 7.4 with potassium hydroxide.
The whole cell current via the expressed KACh channel was measured by a two-electrode voltage clamp method using a GeneClamp 500 amplifier (commercially available from Molecular Devices). The compound (II) dissolved in DMSO, and a perfusate was prepared so that the final concentration was 0.001, 0.01, 0.03, 0.1, 1, and 10 μM. The perfusate containing the compound (II) with a low concentration was added when the amount of current was almost steady, and the amount of current was then recorded while replacing it with a perfusate with a high concentration in the same manner. When the recording was ended, Ba^2+ (3 mM) was added, and the intrinsic leak current was measured. The measured data was analyzed using Clampfit 10.2 (commercially available from Molecular Devices). The IC50 value was calculated using GraphPad Prism version 5.00 (commercially available from GraphPad Software).

KCNJ3 WT zebrafish = experiment: transgenic zebrafish model, heart rate analysis (KCNJ3 WT); format: in vivo, zebrafish (Danio rerio); conditions: 100 nM, after 1 hour
Procedure: as §1
Transgenic zebrafish was prepared by a transposon transfer system using transposon Tol2. Since the cardiac KACh channel was expressed in the sinoatrial node, atrioventricular node, and atrial muscle, a gene construct in which three genes of mCherry were linked with a 2A peptide was prepared so that human KCNJ3 WT or N83H and human KCNJ5, and additionally gene introduction thereof were able to be determined under a fluorescence microscope under the control of the atrial myosin heavy chain (amhc) promoter, which expressed a target gene in zebrafish in an atrial-specific manner (FIG. 3). […] When the adult fish prepared in this manner were crossed with wild type zebrafish, fish whose germline transmission was confirmed by generating fry positive for mCherry in the atrium under a fluorescence microscope were used as an F0 founder. When this F0 founder was crossed with wild type zebrafish hspGFF3A, which expressed GFP in both the ventricle and the atrium (Proceedings of the National Academy of Sciences of the United States of America. 2008; 105:1255-1260.), the heart rate and the heart pulsation rhythm were analyzed using 2 day old F1 transgenic zebrafish fry which expressed GFP in the ventricle and GFP and mCherry in the atrium (FIG. 4). […]

KCNJ3 WT KACh channel [4] = target: T1, KCNJ3 WT KACh channel; conditions: literature (Jin W, Lu Z. Biochemistry 1999); cited from earlier work

| Compound | effect on heart rate and bradyarrhythmia [1] | effect on sinus arrest / atrioventricular block caused by the N83H mutation [1] | inhibitory effect on the KCNJ3 WT KACh channel (KCNJ3 WT KACh channel [2]; two-electrode voltage clamp) | inhibitory effect on the KCNJ5 WT/W101C KACh channel [3] | inhibition of the N83H mutant compared with the WT KACh channel (KCNJ3 N83H KACh channel) | inhibitory effect on the KCNJ3 N83H KACh channel (KCNJ3 N83H KACh channel) | effect on heart rate (KCNJ3 WT zebrafish) | IC50 (KCNJ3 WT KACh channel [2]; wild type, n=13, read-out: IC50 value, inhibition of whole cell current) [nM] | IC50 (KCNJ3 N83H KACh channel; N83H mutant, n=14, p<0.01 vs wild type, read-out: IC50 value, inhibition of whole cell current) [nM] | inhibitory action on the KCNJ3 WT KACh channel (KCNJ3 WT KACh channel [4]) |
| --- | --- | --- | --- | --- | --- | --- | --- | --- | --- | --- |
| Cc1cc(CO)nc2cc3c(cc12)OC(C)(C)[C@H](O)[C@H]3NCCc1ccccc1 [compound (I), (3R4S)-7-hydroxymethyl-2,2,9-trimethyl-4-(phenethylamino)-3,4-dihydro-2H-pyra no[2,3-g]quinoline-3-ol] | increasing the heart rate and improving bradyarrhythmia | improved the sinus arrest and atrioventricular block | exhibited the inhibitory effect | concentration-dependent inhibitory effect | stronger on N83H than WT | exhibited the inhibitory effect |  |  |  |  |
| CC1(C)Oc2cc([N+](=O)[O-])c(N)cc2[C@H](NCCc2ccccc2)[C@H]1O [compound (II), (3R,4S)-6-amino-3,4-di hydro-2,2-dimethyl-7-nitro-4-(2-phenethylamino)-2H-1-benzopyran-3-ol] | increasing the heart rate and improving bradyarrhythmia |  |  |  | higher affinity for the mutant KACh channel | concentration-dependent inhibitory effect | appropriate increase in the heart rate without causing excess tachycardia | 230 ± 60 | 50 ± 12 |  |
| Tertiapin-Q [reference compound] |  | did not improve sinus arrest |  |  |  |  |  |  |  | inhibitory action |

— patent US12233045B2, “Therapeutic agent for treating bradyarrhythmia” (OSAKA UNIVERSITY, priority 2018, dated 2025)
